Each block holds one compound with its values, some of them ahead of it. Activity calls are given as the source filed them. No cut-off for these calls is given here.
Tests used:
Format in all cases: microsomes
Conditions in all cases: Microsome
[1] = target: T1, 3-hydroxy-3-methylglutaryl-coenzyme A reductase (Rattus norvegicus) (UniProt P51639); experiment: Inhibition of enzyme activity in a rat hepatic microsomal HMG-CoA reductase at 100 uM
T1 sequence (whole entry): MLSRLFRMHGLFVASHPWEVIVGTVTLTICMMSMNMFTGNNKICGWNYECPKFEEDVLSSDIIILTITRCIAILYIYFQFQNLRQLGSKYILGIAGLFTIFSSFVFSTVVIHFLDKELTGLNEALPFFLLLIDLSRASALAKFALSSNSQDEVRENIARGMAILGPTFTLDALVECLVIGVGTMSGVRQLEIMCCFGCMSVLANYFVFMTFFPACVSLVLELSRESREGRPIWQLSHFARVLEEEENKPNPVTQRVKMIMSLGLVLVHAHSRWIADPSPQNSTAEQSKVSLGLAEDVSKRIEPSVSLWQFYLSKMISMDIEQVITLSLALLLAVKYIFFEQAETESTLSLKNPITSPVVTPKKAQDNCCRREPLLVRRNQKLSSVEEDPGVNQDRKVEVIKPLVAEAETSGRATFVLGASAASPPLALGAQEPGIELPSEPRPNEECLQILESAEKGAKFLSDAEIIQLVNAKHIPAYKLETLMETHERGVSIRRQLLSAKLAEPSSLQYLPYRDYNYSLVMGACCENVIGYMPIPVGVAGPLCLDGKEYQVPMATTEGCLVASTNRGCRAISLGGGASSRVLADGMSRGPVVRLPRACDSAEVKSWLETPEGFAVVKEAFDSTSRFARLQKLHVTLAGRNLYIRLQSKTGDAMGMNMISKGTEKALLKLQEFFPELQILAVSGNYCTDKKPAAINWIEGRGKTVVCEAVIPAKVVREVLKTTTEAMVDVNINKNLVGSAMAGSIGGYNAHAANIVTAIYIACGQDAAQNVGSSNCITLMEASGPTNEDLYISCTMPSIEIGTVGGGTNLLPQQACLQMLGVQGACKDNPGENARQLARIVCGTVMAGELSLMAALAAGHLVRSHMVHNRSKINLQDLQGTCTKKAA

[2] = target: T1, 3-hydroxy-3-methylglutaryl-coenzyme A reductase (Rattus norvegicus); experiment: Inhibition of enzyme activity in a rat hepatic microsomal HMG-CoA reductase at 100 uM; IA means inactive
[3] = target: T1, 3-hydroxy-3-methylglutaryl-coenzyme A reductase (Rattus norvegicus); experiment: Inhibition of enzyme activity in a rat hepatic microsomal HMG-CoA reductase at 100 uM IA means inactive

- inhibition [1]: 24%
Structure (SMILES): CC(C)[C@@H](O)C(=O)NCCC(=O)NCCSCCC(O)CC(=O)O (stereo partly drawn)

- Activity [2]: inactive
Structure (SMILES): CC(C)[C@@H](O)C(=O)NCCC(=O)NCCSCC(O)CC(O)CC(=O)O (stereo partly drawn)

- Activity [3]: inactive
Structure (SMILES): CC(C)[C@@H](O)C(=O)NCCC(=O)NCCSCC(=O)CC(O)CC(=O)O (stereo partly drawn)

From ChEMBL document CHEMBL1125850, “Synthesis of substrate-based inhibitors of HMG CoA reductase” (Bioorg Med Chem Lett, 1991)
